Data reported in patent US20160095837A1, “MODULATION OF MITOCHONDRIAL CALCIUM UNIPORTER ACTIVITY FOR TREATING AND PREVENTING ARRHYTHMIAS” (priority 2014, published 2016).

Test system: sinoatrial nodal (SAN) pacemaker cells
Experiment: Spontaneous action potential rate of single SAN cells (perforated patch clamp)
Type: cell-based, mouse
Protocol: SAN cells were placed in Tyrode's solution at 36±0.5° C. and were identified by their characteristic morphology (spindle or spider shape) and spontaneous activity. SAN cells were identified electrophysiologically by spontaneous action potentials with a slow depolarizing phase 4 and the hyperpolarization-activated current (If).^27 Spontaneous action potentials, If and ICa were recorded using the perforated (amphotericin B or β-escin in studies requiring dialysis of Ru360 and/or ATP) patch-clamp technique^28 on single SAN cells at 36±0.5° C. in Tyrode's solution. Intracellular Ca^2+ transients were recorded from single SAN cells using Fura-2 AM excited at 340 nm and 380 nm and emitted and 510 nm. Endogenous NADH from single SAN cells was measured by excitation at 350 nm and recording emitted light at 460 nm.^29 Mitochondrial Ca^2+ was measured at 535 nm from mt-pericam expressing SAN cells exited at 415 nm^20. Mitochondrial Ca^2+ entry was measured in cell membrane permeabilized cardiomyocytes isolated from DN-MCU transgenic, wild type mice and from HEK293 cells using Calcium green-5N^30.
Isolation of single SAN cells from mice was performed according to previously published methods^22, 27, 31 with minor modifications. Mice were administered an intraperitoneal injection of avertin (20 μl/g) and monitored until unresponsive. The heart was excised and placed into Tyrode's solution (35° C.), consisting of (mM) 140 NaCl, 5.0 HEPES, 5.5 Glucose, 5.4 KCl, 1.8 CaCl2, and 1.0 MgCl2. The pH was adjusted to 7.4 with NaOH. […] The SAN was cut into smaller pieces, which were transferred and rinsed in a solution containing (mM) 140 NaCl, 5.0 HEPES, 5.5 Glucose, 5.4 KCl, 0.2 CaCl2, 0.5 MgCl2, 1.2 KH2PO4, 50 Taurine and 1 mg/ml bovine serum albumin (BSA), with pH adjusted to 7.4 using NaOH. SAN tissue pieces were digested in 5 ml of solution containing collagenase type I, elastase (Worthington), and protease type XIV (Sigma) for 20-30 min. The tissue was transferred to 10 ml of Kraft-Bruhe (KB) medium containing (mM) 100 potassium glutamate, 5.0 HEPES, 20 Glucose, 25 KCl, 10 potassium aspartate, 2.0 MgSO4, 10 KH2PO4, 20 taurine, 5 creatine, 0.5 EGTA, and 1 mg/ml BSA, with pH adjusted to 7.2 using KOH. The tissue was agitated using a glass pipette for 10 min. The cells were stored at 4° C. and studied within 7 hours.
SAN cells were placed in Tyrode's solution at 36±0.5° C. SAN cells were identified by their characteristic morphology (spindle or spider shape) and spontaneous activity in all single cell experiments. SAN cells were also identified electrophysiologically by typical spontaneous action potentials with slow depolarizing phase 4 and the hyperpolarization-activated current (If) in electrophysiological experiments.
Spontaneous action potentials (APs) and If were recorded using the perforated (amphotericin B or β-escin) patch-clamp technique^28 on single SAN cell at 36±0.5° C. in Tyrode's solution (0.5 mM BaCl2 was added to the bath solution when recording If^32). The pipette was filled with (mM) 130 potassium aspartate, 10 NaCl, 10 HEPES, 0.04 CaCl2, amphotericin B 240 μg/ml with pH adjusted to 7.2 with KOH. SAN cells with stable APs lasting at least 5 min were included in the experiments. β-escin 25 μM was substituted for amphotericin B to allow dialysis of Ru360 or ATP. When recording If, membrane potential was held at −35 mV, the voltage steps were applied for 5 s ranging from −125 mV to −45 mV in 10 mV increments or vice versa.^33 ICa was measured using the perforated patch technique at […] as previously described.^22 ICa was confirmed by its sensitivity to Nifedipine 5 μM. Depolarizing voltage pulses (300 ms in duration) to various potentials (−60 mV to 60 mV in 10 mV step) were applied after 50 ms at −40 mV to inactivate INa from a holding potential of −70 mV. […]

## (μ)[(HCO2)(NH3)4Ru]2OCl3) [Ru360]
dialysis, no ISO
  Basal SAN cell rates: neither Ru360 nor ATP had any affect
Freshly isolated SAN cells dialyzed with Ru360 5 μM, vs cells without Ru360
  SAN cell action potential frequency increases to ISO: significantly reduced
